pEC50: −log10 of the molar value.

This experiment concerns YAP/TAZ-TEAD transcription. Description: Reporter gene assay for measuring the inhibition of YAP/TAZ-TEAD transcription (TEAD-responsive element luciferase reporter in Hek293T cells). The format is cell-based. The note with it: Homo sapiens, HEK-293T, 24 hours incubation. Put shortly: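 Percent inhibition, scaled between vehicle (0%) and a positive control inhibitor (100%), came from SteadyLite luciferase signal after 24 h compound exposure at 37 °C/5% CO2. Cells: Hek293T transiently carrying a TEAD-responsive luciferase reporter; EC50 derived.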
Turning to `CNS(=O)(=O)CCNc1ccc(-c2cc(F)cc(F)c2)cc1-c1ccn(Cc2cccnc2)n1` [compound 101, 2-((3′,5′-difluoro-3-(1-(pyridin-3-ylmethyl)-1H-pyrazol-3-yl)-[1,1′-biphenyl]-4-yl)amino)-N-methylethane-1-sulfonamide], the pEC50 is over 6.00. The figure for `CNS(=O)(=O)CCNc1ccc(-c2ccc(C(F)(F)F)cc2)cc1-c1ccn(Cc2cccc(F)c2)n1` [compound 103, 2-((3-(1-(3-fluorobenzyl)-1H-pyrazol-3-yl)-4′-(trifluoromethyl)-[1,1′-biphenyl]-4-yl)amino)-N-methylethane-1-sulfonamide] is over 6.00. For `CNS(=O)(=O)CCNc1ccc(-c2ccccc2)cc1-c1ccn(Cc2cccc(C#N)c2)n1` [compound 104, 2-((3-(1-(3-cyanobenzyl)-1H-pyrazol-3-yl)-[1,1′-biphenyl]-4-yl)amino)-N-methylethane-1-sulfonamide] the value was over 6.00. `CNS(=O)(=O)CCNc1ccc(-c2ccc(C(F)(F)F)cc2)cc1-c1ccn(CCOC)n1` [compound 105, 2-((3-(1-(2-methoxyethyl)-1H-pyrazol-3-yl)-4′-(trifluoromethyl)-[1,1′-biphenyl]-4-yl)amino)-N-methylethane-1-sulfonamide] showed a pEC50 of over 6.00. The figure for `CNS(=O)(=O)CCNc1ccc(-c2ccc(Cl)cc2)cc1-c1ccn(Cc2cccnc2)n1` [compound 106, 2-((4′-chloro-3-(1-(pyridin-3-ylmethyl)-1H-pyrazol-3-yl)-[1,1′-biphenyl]-4-yl)amino)-N-methylethane-1-sulfonamide] is over 6.00.

For `O=S(=O)(O)CCNc1ccc(-c2ccc(Cl)cc2)cc1-c1ccn(Cc2cccnc2)n1` [compound 107, 2-((4′-chloro-3-(1-(pyridin-3-ylmethyl)-1H-pyrazol-3-yl)-[1,1′-biphenyl]-4-yl)amino)ethane-1-sulfonic acid], the pEC50 is under 4.70. For `CNS(=O)(=O)CCNc1ccc(-c2cnn(C)c2)cc1-c1ccn(Cc2cccnc2)n1` [compound 108, N-methyl-2-((4-(1-methyl-1H-pyrazol-4-yl)-2-(1-(pyridin-3-ylmethyl)-1H-pyrazol-3-yl)phenyl)amino)ethane-1-sulfonamide] the value was 4.70 to 6.00; for `Cn1ccc(-c2ccc(NCCS(=O)(=O)O)c(-c3ccn(Cc4cccnc4)n3)c2)n1` [compound 109, 2-((4-(1-methyl-1H-pyrazol-3-yl)-2-(1-(pyridin-3-ylmethyl)-1H-pyrazol-3-yl)phenyl)amino)ethane-1-sulfonic acid], under 4.70; for `COc1ccc(-c2ccc(NCCS(=O)(=O)F)c(-c3ccn(Cc4cccnc4)n3)c2)cc1` [compound 110, 2-((4′-methoxy-3-(1-(pyridin-3-ylmethyl)-1H-pyrazol-3-yl)-[1,1′-biphenyl]-4-yl)amino)ethane-1-sulfonyl fluoride], 4.70 to 6.00. For `CNS(=O)(=O)CCNc1ccc(-c2ccc(OC)cc2)cc1-c1ccn(Cc2cccnc2)n1` [compound 111, 2-((4′-methoxy-3-(1-(pyridin-3-ylmethyl)-1H-pyrazol-3-yl)-[1,1′-biphenyl]-4-yl)amino)-N-methylethane-1-sulfonamide] the value was over 6.00.

In turn, `CNS(=O)(=O)CCNc1ccc(-c2ccc(C(F)(F)F)cc2)cc1-c1ccn(CCO)n1` [compound 112, 2-((3-(1-(2-hydroxyethyl)-1H-pyrazol-3-yl)-4′-(trifluoromethyl)-[1,1′-biphenyl]-4-yl)amino)-N-methylethane-1-sulfonamide] gave a pEC50 of over 6.00. The figure for `CNS(=O)(=O)CCNc1ccc(-c2ccccc2)cc1-c1ccn(Cc2cccc(C(N)=O)c2)n1` [compound 113, 3-((3-(4-((2-(N-methylsulfamoyl)ethyl)amino)-[1,1′-biphenyl]-3-yl)-1H-pyrazol-1-yl)methyl)benzamide] is over 6.00; for `CNS(=O)(=O)CCNc1ccc(-c2ccccn2)cc1-c1ccn(Cc2cccnc2)n1` [compound 114, N-methyl-2-((4-(pyridin-2-yl)-2-(1-(pyridin-3-ylmethyl)-1H-pyrazol-3-yl)phenyl)amino)ethane-1-sulfonamide] it is 4.70 to 6.00; for `CNS(=O)(=O)CCNc1ccc(Cc2ccccc2)cc1-c1ccn(Cc2cccnc2)n1` [compound 115, 2-((4-benzyl-2-(1-(pyridin-3-ylmethyl)-1H-pyrazol-3-yl)phenyl)amino)-N-methylethane-1-sulfonamide] it is over 6.00. `CNS(=O)(=O)CCNc1ccc(Nc2ccccc2)cc1-c1ccn(Cc2cccnc2)n1` [compound 116, N-methyl-2-((4-(phenylamino)-2-(1-(pyridin-3-ylmethyl)-1H-pyrazol-3-yl)phenyl)amino)ethane-1-sulfonamide] gave a pEC50 of over 6.00.

With `CNS(=O)(=O)CCNc1ccc(-c2cccc(C(F)(F)F)c2)cc1-c1ccn(C)n1` [compound 120], the negative-log EC50 (pEC50) is over 6.00.

With `CNS(=O)(=O)CCNc1ccc(-c2cccc(Cl)c2)cc1-c1ccn(C)n1` [compound 122, 2-((3′-chloro-3-(1-methyl-1H-pyrazol-3-yl)-[1,1′-biphenyl]-4-yl)amino)-N-methylethane-1-sulfonamide], the pEC50 was over 6.00. `CNS(=O)(=O)CCNc1ccc(-c2cc(F)ccc2F)cc1-c1ccn(C)n1` [compound 123, 2-((2′,5′-difluoro-3-(1-methyl-1H-pyrazol-3-yl)-[1,1′-biphenyl]-4-yl)amino)-N-methylethane-1-sulfonamide] showed a pEC50 of over 6.00. As for `CNS(=O)(=O)CCNc1ccc(-c2cccc(F)c2F)cc1-c1ccn(C)n1` [compound 125, 2-((2′,3′-difluoro-3-(1-methyl-1H-pyrazol-3-yl)-[1,1′-biphenyl]-4-yl)amino)-N-methylethane-1-sulfonamide], the pEC50 was over 6.00. For `CNS(=O)(=O)CCNc1ccc(-c2cc(F)cc(F)c2)cc1-c1ccn(C)n1` [compound 126, 2-((3′,5′-difluoro-3-(1-methyl-1H-pyrazol-3-yl)-[1,1′-biphenyl]-4-yl)amino)-N-methylethane-1-sulfonamide] the value was over 6.00. The figure for `CNS(=O)(=O)CCNc1ccc(-c2ccc(C(F)(F)F)c(F)c2)cc1-c1ccn(C)n1` [compound 127, 2-((3′-fluoro-3-(1-methyl-1H-pyrazol-3-yl)-4′-(trifluoromethyl)-[1,1′-biphenyl]-4-yl)amino)-N-methylethane-1-sulfonamide] is over 6.00.

For the compound `CNS(=O)(=O)CCNc1ccc(-c2cc(F)cc(C(F)(F)F)c2)cc1-c1ccn(C)n1` [compound 128, 2-((3′-fluoro-3-(1-methyl-1H-pyrazol-3-yl)-5′-(trifluoromethyl)-[1,1′-biphenyl]-4-yl)amino)-N-methylethane-1-sulfonamide], the pEC50 was over 6.00. `CNS(=O)(=O)CCNc1ccc(-c2cccc(OC(F)(F)F)c2)cc1-c1ccn(C)n1` [compound 129, N-methyl-2-((3-(1-methyl-1H-pyrazol-3-yl)-3′-(trifluoromethoxy)-[1,1′-biphenyl]-4-yl)amino)ethane-1-sulfonamide] had a pEC50 of 4.70 to 6.00. For `CNS(=O)(=O)CCNc1cnc(-c2ccc(C(F)(F)F)cc2)cc1-c1ccn(C(F)F)n1` [compound 130, 2-((4-(1-(difluoromethyl)-1H-pyrazol-3-yl)-6-(4-(trifluoromethyl)phenyl)pyridin-3-yl)amino)-N-methylethane-1-sulfonamide] the value was over 6.00.

By pEC50 is commonly meant the negative decadic logarithm of the EC50, by convention in mol/L. A low value points to a large EC50.

The record behind these values is patent US12552772B2, “2-pyrazole anilines and related analogs for inhibiting YAP/TAZ-TEAD” (KATHOLIEKE UNIVERSITEIT LEUVEN, priority 2021, dated 2026).
